Entries after “also recorded” stand apart in the source; their conditions may differ. Read-outs that look alike come from different tables or passages of the source.
Key:
MRGPRX4 [1] = molecular target: T1, MRGPRX4 (Homo sapiens, UniProt Q96LA9); assay: MRGPR X4 antagonist activity, IP-One Gq HTRF assay in stably transfected HEK cells (versus agonist bilirubin, deoxycholic acid, conjugated bilirubin, urobilin, obeticholic acid or BAR502); type: cell-based; parameters: expressed in transfected cells; host or cells: HEK cells, stably transfected
Method in brief: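 Stably transfected HEK cells expressing human MRGPR X4, seeded overnight, given compounds as 10-point 1:3 curves from 10 uM final top, incubated 1 h at 37° C then 30 min at room temperature. IP-1 measured by IP-One Gq HTRF. IC50 derived from the HTRF ratio.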

[2] = Mouse pharmacokinetics study, 50 mg/kg oral gavage, plasma LC-MS/MS; type: in vivo; settings: male C57BL/6 mice, non-fasted
Experimental: Compounds were formulated in 5% DMSO, 5% Solutol, and […] phosphate buffered saline at a concentration of 5 mg/mL, and typically appeared as a fine homogenous suspension. Male C57BL/6 mice (n=3/compound) were administered a 50 mg/kg dose of each compound by oral gavage under a non-fasted condition. Blood samples were collected via the saphenous vein onto K2-EDTA at 0.25, 0.5, 1, 2, 4, 8 and 24 hours after dosing, and plasma was prepared and stored at […] until analysis. Plasma sample preparation for analysis was done by protein precipitation using acetonitrile (including Celecoxib as an internal standard) followed by centrifugation. Compound concentrations were determined in extracted plasma using LC-MS/MS relative to an 8 point standard curve covering the 1 to 3000 ng/mL range. Non-compartmental analysis using Phoenix WinNonlin was used to estimate pharmacokinetic parameters including area under the curve, clearance, and half-life. The administered dose was confirmed by analysis of residual dosing material by UPLC-UV relative to a single point calibration sample.

MRGPRX4 [3] = molecular target: T1, MRGPRX4; assay: In vitro activation (agonism) of MRGPRX4, IP-One Gq HTRF assay; type: cell-based
Experimental: Metabolites of heme (bilirubin, biliverdin, urobilin, urobilinogen, and stercobilin) were analyzed for in vitro activation of MRGPRX4. Cells were plated in a 384-well assay plate at 20,000 cells per well in 12 μL of Opti-MEM and kept in an incubator overnight. On the day of the assay, different agonists solubilized at 10 mM in 0.1% NaOH were added as a 10-point curve ([…] final top concentration with 1:3 serial dilutions) using a Tecan D300E digital dispenser. Agonists were diluted in assay buffer (final concentrations of 5.7 mM Tris-HCl, 43 mM NaCl, 50 mM LiCl, pH=8) and 2 μL of the appropriate agonist are added to each well. Plates were incubated in the dark for 1 h at 37° C. and then for 30 minutes at room temperature. IP-1 standards and HTRF detection reagents were added according to the IP-One—Gq Kit purchased from Cisbio (part number 62IPAPEJ) and incubated in the dark for 1 h at room temperature. The plate was read on a Molecular Devices SpectraMax iD5 plate reader. The HTRF ratio was calculated from the raw data and graphed using GraphPad Prism to calculate an IC50 value for each compound.

MRGPRX4 [4] = molecular target: T1, MRGPRX4; assay: Agonism of MRGPRX4 by bilirubin and urobilin samples after 24 h storage; type: cell-based; settings: 24 h at room temperature under blue light; FIG. 4B
Experimental: Samples were evaluated after 24 hours and the percent remaining of urobilin and bilirubin, relative to a time zero standard, were determined by measurement of the degradation of the analyte contained in the samples as determined by tandem mass spectroscopy (LC MS/MS). The samples (at 24 h) were also evaluated for their ability to agonize MRGPRX4.

wild type mice = assay: Mouse itch study, scratching bouts after subcutaneous pruritogen (SCLABA); type: in vivo; settings: SC injection on the neck, 30 min recording, FIG. 2A-2B
Experimental: The ability of urobilin to induce itch in wild type mice was also tested. Typical mouse itch studies occurred as follows: C57B6J male mice were multiple-housed in a normal light cycle (6 am on; […]) under temperature and humidity-controlled conditions. The mice were handled and habituated to test chambers before testing, then placed in individual SCLABA test chambers. After 20 minutes, the mice were dosed PO with vehicle (saline, pH 7-8). After 30 minutes, the pruritogen of study ([…] in saline) or saline is given subcutaneously (SC) on the neck on the midline behind the ears. Video was recorded from the first pruritogen injection for 30 minutes using the SCLABA system. Scratching bouts were scored from SCLABA thumbnails using 12/45/85/100 waveform criteria. Group sizes were typically 9-10 animals per group.

[5] = read-out: IC50 (10 μM BAR502) nM, MRGPRX4 antagonists versus 10 μM BAR502 agonist
[6] = versus 10 μM Bilirubin agonist, HEK cells expressing human MRGPR X4, read-out: MRGPR4 Antagonist Activity
[7] = versus 10 μM Bilirubin agonist, read-out: IC50 (Bilirubin agonist)
[8] = versus 20 μM deoxycholic acid, read-out: IC50 (Deoxycholic Acid agonist)
[9] = versus 20 μM obeticholic acid, read-out: IC50 (Obeticholic Acid Agonist)
[10] = versus 50 μM urobilin, read-out: IC50 (Urobilin Agonist)
[11] = versus 100 μM conjugated bilirubin, read-out: IC50 (Conjugated Bilirubin Agonist)

T1 sequence (Q96LA9 whole entry): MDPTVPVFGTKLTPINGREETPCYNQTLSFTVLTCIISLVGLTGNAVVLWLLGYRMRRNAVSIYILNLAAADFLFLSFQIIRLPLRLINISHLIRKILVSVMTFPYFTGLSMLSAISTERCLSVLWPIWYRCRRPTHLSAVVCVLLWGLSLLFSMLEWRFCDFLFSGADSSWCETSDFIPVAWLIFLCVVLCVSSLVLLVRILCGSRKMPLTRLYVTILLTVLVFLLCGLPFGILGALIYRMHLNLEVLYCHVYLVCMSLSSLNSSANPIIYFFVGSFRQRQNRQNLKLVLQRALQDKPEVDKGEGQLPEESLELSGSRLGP

SMILES	IC50 (MRGPRX4 [1]; [5])	IC50 (MRGPRX4 [1]; [6])	IC50 (MRGPRX4 [1]; [7])	IC50 (MRGPRX4 [1]; [8])	IC50 (MRGPRX4 [1]; [9])	IC50 (MRGPRX4 [1]; [10])	IC50 (MRGPRX4 [1]; [11])	AUC [2]	Cmax [2]	T-1/2 [2]	EC50 (MRGPRX4 [3]; read-out: agonist activity against MRGPRX4)	agonist activity on MRGPRX4 after storage, relative to the other three groups (MRGPRX4 [4])	efficacy at activating MRGPRX4 relative to bilirubin (MRGPRX4 [3]; FIG. 1, compared with bilirubin)	induction of scratch response in mice (wild type mice)
O=C(O)c1cccc(COc2ccc(C(F)(F)F)cc2Cl)n1 [Compound 1-56, 6-((2-chloro-4-(trifluoromethyl)phenoxy)methyl)picolinic acid]	16 nM	< 100 nM	28 nM	30 nM	24 nM	21 nM	32 nM	880 μMxhr	162 µM	3.2 h	–	–	–	–
O=C(O)c1cc(F)cc(COc2ccc(C(F)(F)F)cc2Cl)c1 [Compound 1-65, 3-((2-chloro-4-(trifluoromethyl)phenoxy)methyl)-5-fluorobenzoic acid]	13 nM	< 100 nM	9 nM	28 nM	23 nM	21 nM	17 nM	1037 μMxhr	220 µM	4.8 h	–	–	–	–
O=C(O)c1cccc(COc2ccc(C(F)(F)F)cc2Cl)c1F [Compound 1-55, 3-((2-chloro-4-(trifluoromethyl)phenoxy)methyl)-2-fluorobenzoic acid]	16 nM	< 100 nM	6 nM	22 nM	11 nM	23 nM	14 nM	2150 μMxhr	230 µM	11.2 h	–	–	–	–
O=C(O)c1cccc(COc2ccc(Cl)c(Cl)c2Cl)c1 [Compound 1-78]	20 nM	< 100 nM	7 nM	24 nM	21 nM	13 nM	24 nM	219 μMxhr	57 µM	4.0 h	–	–	–	–
O=C(O)c1cccc(COc2ccc(Cl)cc2Cl)n1 [Compound 1-115]	–	< 100 nM	81 nM	230 nM	47 nM	–	180 nM	1206 μMxhr	306 µM	3.0 h	–	–	–	–
O=C(O)c1cccc(COc2ccc(Cl)cc2Cl)c1 [Compound 1-18]	48 nM	< 100 nM	57 nM	130 nM	40 nM	230 nM	130 nM	376 μMxhr	113 µM	4.2 h	–	–	–	–
CCC1=C(C)C(CC2=N/C(=C\c3[nH]c(CC4NC(=O)C(C)=C4CC)c(C)c3CCC(=O)O)C(CCC(=O)O)=C2C)NC1=O (stereo not shown) [Urobilin, urobilin]	–	–	–	–	–	–	–	–	–	–	–	very little agonist activity	at least 10 fold	induced scratch response in mice in a dose dependent manner; also recorded: potent inducer of scratch response in mice
O=C(O)c1cc(COc2ccc(C(F)(F)F)cc2Cl)ccc1F [Compound 1-85, 5-((2-chloro-4-(trifluoromethyl)phenoxy)methyl)-2-fluorobenzoic acid]	–	< 100 nM	20 nM	30 nM	15 nM	41 nM	29 nM	1069 μMxhr	239 µM	4.7 h	–	–	–	–
O=C(O)c1cccc(COc2ccc(C(F)(F)F)cc2Cl)c1 [Compound 1-29]	–	< 100 nM	20 nM	46 nM	25 nM	16 nM	46 nM	615 μMxhr	196 µM	4.6 h	–	–	–	–

More lines, main results first:

IC50 (MRGPRX4 [1]; [5])	IC50 (MRGPRX4 [1]; [6])	IC50 (MRGPRX4 [1]; [7])	IC50 (MRGPRX4 [1]; [8])	IC50 (MRGPRX4 [1]; [9])	IC50 (MRGPRX4 [1]; [10])	IC50 (MRGPRX4 [1]; [11])	AUC [2]	Cmax [2]	T-1/2 [2]	EC50 (MRGPRX4 [3]; read-out: agonist activity against MRGPRX4)	agonist activity on MRGPRX4 after storage, relative to the other three groups (MRGPRX4 [4])	efficacy at activating MRGPRX4 relative to bilirubin (MRGPRX4 [3]; FIG. 1, compared with bilirubin)	SMILES	induction of scratch response in mice (wild type mice)
–	< 100 nM	24 nM	63 nM	25 nM	35 nM	41 nM	572 μMxhr	257 µM	3.6 h	–	–	–	Cc1cc(COc2ccc(C(F)(F)F)cc2C)cc(C(=O)O)c1 [Compound 4-11]	–
–	< 100 nM	27 nM	55 nM	–	–	81 nM	1503 μMxhr	231 µM	5.9 h	–	–	–	O=C(O)c1cccc(COc2ccc(Cl)cc2Cl)c1F [Compound 4-1, 3-((2,4-dichlorophenoxy)methyl)-2-fluorobenzoic acid]	–
17 nM	< 100 nM	16 nM	16 nM	7 nM	21 nM	28 nM	4700 μMxhr	460 µM	5.4 h	–	–	–	CCc1cc(COc2ccc(C(F)(F)F)cc2Cl)nc(C(=O)O)c1 [Compound 42-3]	–
–	–	–	–	–	–	–	–	–	–	5700 nM	–	–	CC[C@H]1[C@@H](O)[C@@H]2[C@H](CC[C@]3(C)[C@@H]([C@H](C)CCO)CC[C@@H]23)[C@@]2(C)CC[C@@H](O)C[C@@H]12 [BAR502]	–
–	< 100 nM	16 nM	22 nM	15 nM	35 nM	21 nM	974 μMxhr	260 µM	4.6 h	–	–	–	Cc1cc(COc2ccc(C(F)(F)F)cc2Cl)cc(C(=O)O)c1 [Compound 4-10, 3-((2-chloro-4-(trifluoromethyl)phenoxy)methyl)-5-methylbenzoic acid]	–

Reference: patent US11840521B2, “Modulators of Mas-related G-protein receptor X4 and related products and methods” (Escient Pharmaceuticals, Inc., priority 2019, dated 2023)
